Consider 20 compounds from PubChem BioAssay AID248 (DTP/NCI, 2004).

The test system of the assay is L1210 leukemia ip in BDF1 mice, survival T/C. Kind of assay: NCI In Vivo Anticancer Drug Screen. Data for tumor model L1210 Leukemia (intraperitoneal) in B6D2F1 (BDF1) mice. The conditions noted are these: endpoint: mean survival time, higher = longer survival. The gist of the method: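 Mice bearing the transplanted tumor received compound or vehicle. Survival of the treated group was divided by that of the vehicle-treated control group to give the ratio.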

Where [1] appears, read: dose: 100.0 mg/kg/injection, schedule: Q04DX003 (ip), vehicle: saline with Tween-80.
[2] abbreviates: dose: 200.0 mg/kg/injection, schedule: Q04DX003 (ip), vehicle: saline with Tween-80.
Where [3] appears, read: dose: 400.0 mg/kg/injection, schedule: Q04DX003 (ip), vehicle: saline with Tween-80.
The mark [4] stands for this setting: dose: 100.0 mg/kg/injection, schedule: Q01DX009 (ip), vehicle: Klucel (hydroxypropylcellulose) (HPC).
The mark [5] stands for this setting: dose: 200.0 mg/kg/injection, schedule: Q01DX009 (ip), vehicle: Klucel (hydroxypropylcellulose) (HPC).
[6] abbreviates: dose: 400.0 mg/kg/injection, schedule: Q01DX009 (ip), vehicle: Klucel (hydroxypropylcellulose) (HPC).
Setting [7] is: dose: 100.0 mg/kg/injection, schedule: Q04DX002 (ip), vehicle: saline with Tween-80.
Setting [8] is: dose: 200.0 mg/kg/injection, schedule: Q04DX002 (ip), vehicle: saline with Tween-80.
[9] abbreviates: dose: 400.0 mg/kg/injection, schedule: Q04DX002 (ip), vehicle: saline with Tween-80.
Where [10] appears, read: dose: 100.0 mg/kg/injection, schedule: Q01DX009 (ip), vehicle: saline with Tween-80.
Where [11] appears, read: dose: 200.0 mg/kg/injection, schedule: Q01DX009 (ip), vehicle: saline with Tween-80.
Setting [12] is: dose: 400.0 mg/kg/injection, schedule: Q01DX009 (ip), vehicle: saline with Tween-80.
The mark [13] stands for this setting: dose: 100.0 mg/kg/injection, schedule: Q01DX001 (ip), vehicle: saline with Tween-80.
The mark [14] stands for this setting: dose: 200.0 mg/kg/injection, schedule: Q01DX001 (ip), vehicle: saline with Tween-80.
Where [15] appears, read: dose: 400.0 mg/kg/injection, schedule: Q01DX001 (ip), vehicle: saline with Tween-80.
Where [16] appears, read: dose: 100.0 mg/kg/injection, schedule: Q04DX003 (ip), vehicle: saline.
Where [17] appears, read: dose: 200.0 mg/kg/injection, schedule: Q04DX003 (ip), vehicle: saline.
[18] abbreviates: dose: 400.0 mg/kg/injection, schedule: Q04DX003 (ip), vehicle: saline.
[19] abbreviates: dose: 200.0 mg/kg/injection, schedule: Q01DX009 (ip), vehicle: saline.
The mark [20] stands for this setting: dose: 25.0 mg/kg/injection, schedule: Q04DX002 (ip), vehicle: Klucel (hydroxypropylcellulose) (HPC).
Setting [21] is: dose: 50.0 mg/kg/injection, schedule: Q04DX002 (ip), vehicle: Klucel (hydroxypropylcellulose) (HPC).
[22] abbreviates: dose: 100.0 mg/kg/injection, schedule: Q04DX002 (ip), vehicle: Klucel (hydroxypropylcellulose) (HPC).

Inconclusive results and toxic doses are left out.

Turning to `CCNC(=O)OCCc1c2ccccc2[n+]([O-])c2ccccc12`, the T/C under setting [1] is 96 % of control, the T/C under setting [2] is 102 % of control and the T/C under setting [3] was 90 % of control.

Turning to `COc1ccc(Cl)cc1NC(=O)Oc1cc(C)c(Cl)c(C)c1`, the T/C by setting is: under setting [4], 104 % of control; under setting [5], 95 % of control; under setting [6], 112 % of control.

For the compound `Cc1cc(N(CCCl)CCCl)ccc1C=Nc1ccc(-c2csc(-c3ccccc3)n2)c(Cl)c1`, the T/C (dose: 100.0 mg/kg/injection, schedule: Q01DX001 (ip), vehicle: carboxymethylcellulose (CMC)) was 98 % of control; the T/C (dose: 200.0 mg/kg/injection, schedule: Q01DX001 (ip), vehicle: carboxymethylcellulose (CMC)) is 95 % of control; the T/C (dose: 400.0 mg/kg/injection, schedule: Q01DX001 (ip), vehicle: carboxymethylcellulose (CMC)) was 107 % of control.

Consider `CCCCCCCCC1SC(=S)NC1CCCCCCCC(=O)OC` (configuration not stated), for which the T/C runs as follows: under setting [7], 96 % of control; under setting [8], 100 % of control; under setting [9], 100 % of control.

Regarding `CCCNC1=C(C)C(=O)C2=C(C1=O)[C@H](COC(N)=O)[C@]1(OC)[C@@H]3N[C@@H]3CN21`, the T/C reads like this: (dose: 2.9 mg/kg/injection, schedule: Q01DX001 (ip), vehicle: acetone) 109 % of control; (dose: 4.3 mg/kg/injection, schedule: Q01DX001 (ip), vehicle: acetone) 117 % of control; (dose: 4.5 mg/kg/injection, schedule: Q01DX009 (ip), vehicle: acetone) 118 % of control; (dose: 6.6 mg/kg/injection, schedule: Q01DX001 (ip), vehicle: saline) 108 % of control; (dose: 7.5 mg/kg/injection, schedule: Q01DX009 (ip), vehicle: acetone) 86 % of control; (dose: 9.9 mg/kg/injection, schedule: Q01DX001 (ip), vehicle: saline) 101 % of control. Besides, the T/C (dose: 15.0 mg/kg/injection, schedule: Q01DX001 (ip), vehicle: acetone) is 165 % of control; the T/C (dose: 15.0 mg/kg/injection, schedule: Q01DX001 (ip), vehicle: saline) was 110 % of control; the T/C (dose: 22.0 mg/kg/injection, schedule: Q01DX001 (ip), vehicle: acetone) was 92 % of control; the T/C (dose: 22.0 mg/kg/injection, schedule: Q01DX001 (ip), vehicle: saline) was 113 % of control.

Regarding `CCOC(=O)C(Cc1ccc(Cl)c(Cl)c1)(Cc1ccc(Cl)c(Cl)c1)C(=O)OCC`, the T/C under setting [10] is 104 % of control; the T/C under setting [1] is 88 % of control; the T/C under setting [11] is 97 % of control; the T/C under setting [2] is 89 % of control; the T/C under setting [12] is 95 % of control; the T/C under setting [3] was 105 % of control.

Take `S=c1cc[nH]c2n[nH]nc12`: the T/C reads like this: under setting [13], 101 % of control; under setting [1], 104 % of control; under setting [14], 101 % of control; under setting [2], 101 % of control; under setting [15], 103 % of control; under setting [3], 98 % of control.

For the compound `CCOP(=O)(OCC)OC(=C(F)F)P(=O)(OCC)OCC`, the T/C reads like this: under setting [16], 98 % of control; under setting [17], 101 % of control; under setting [18], 96 % of control.

Regarding `O=C(Nc1ccccc1)N(C1CCCCC1)C1CCCCC1`, the T/C is 86 % of control under setting [4], 88 % of control under setting [5] and 89 % of control under setting [6].

Consider `CCCc1cc2c3c(c(=O)oc2cc1OC)CCCC3`, for which the T/C reads like this: under setting [1], 93 % of control; under setting [2], 104 % of control; under setting [3], 93 % of control.

On to `CN(C)N=Nc1c(Cl)cc(Cl)cc1C(N)=O`, for which the T/C reads like this: under setting [13], 108 % of control; under setting [10], 111 % of control; under setting [1], 106 % of control; (dose: 133.0 mg/kg/injection, schedule: Q01DX009 (ip), vehicle: saline with Tween-80) 123 % of control; under setting [14], 111 % of control; under setting [11], 165 % of control. Moreover, the T/C under setting [19] is 115 % of control; the T/C under setting [2] is 110 % of control; the T/C (dose: 300.0 mg/kg/injection, schedule: Q01DX009 (ip), vehicle: saline with Tween-80) is 150 % of control; the T/C (dose: 300.0 mg/kg/injection, schedule: Q01DX009 (ip), vehicle: saline) was 100 % of control; the T/C under setting [15] is 117 % of control.

On to `O=[N+]([O-])/C=C/c1c(O)c(Cl)cc(Cl)c1Cl`, for which the T/C (dose: 12.5 mg/kg/injection, schedule: Q04DX002 (ip), vehicle: Klucel (hydroxypropylcellulose) (HPC)) was 92 % of control; the T/C under setting [20] is 92 % of control; the T/C under setting [21] was 95 % of control.

As for `Cc1ccc(CNC(=S)Nc2ccccc2)c(C)c1`, the T/C is, setting by setting: under setting [22], 96 % of control; (dose: 200.0 mg/kg/injection, schedule: Q04DX002 (ip), vehicle: Klucel (hydroxypropylcellulose) (HPC)) 103 % of control; (dose: 400.0 mg/kg/injection, schedule: Q04DX002 (ip), vehicle: Klucel (hydroxypropylcellulose) (HPC)) 103 % of control.

As for `COc1ccc(O)c2c(C(=O)c3ccccc3)c[nH]c12`, the T/C by setting is: under setting [20], 87 % of control; under setting [21], 95 % of control; under setting [22], 95 % of control.

In the case of `CC(C)CP(=O)(CC(C)C)C1CCCCC1`, the T/C runs as follows: under setting [1], 97 % of control; under setting [2], 99 % of control.

For `CCCCc1ccc(NC(=O)N(CCCl)N=O)cc1`, the T/C by setting is: (dose: 6.0 mg/kg/injection, schedule: Q01DX009 (ip), vehicle: carboxymethylcellulose (CMC)) 156 % of control; (dose: 33.0 mg/kg/injection, schedule: Q01DX009 (ip), vehicle: carboxymethylcellulose (CMC)) 175 % of control; (dose: 37.5 mg/kg/injection, schedule: Q01DX001 (ip), vehicle: carboxymethylcellulose (CMC)) 163 % of control; (dose: 50.0 mg/kg/injection, schedule: Q01DX009 (ip), vehicle: carboxymethylcellulose (CMC)) 180 % of control; (dose: 75.0 mg/kg/injection, schedule: Q01DX001 (ip), vehicle: carboxymethylcellulose (CMC)) 194 % of control; (dose: 75.0 mg/kg/injection, schedule: Q01DX009 (ip), vehicle: carboxymethylcellulose (CMC)) 106 % of control. The T/C by setting is: (dose: 75.0 mg/kg/injection, schedule: Q04DX003 (ip), vehicle: saline with Tween-80) 120 % of control; (dose: 112.5 mg/kg/injection, schedule: Q01DX009 (ip), vehicle: carboxymethylcellulose (CMC)) 87 % of control; (dose: 150.0 mg/kg/injection, schedule: Q01DX001 (ip), vehicle: carboxymethylcellulose (CMC)) 260 % of control.

In the case of `COc1ccc([N+](=O)[O-])c(C=O)c1`, the T/C (dose: 100.0 mg/kg/injection, schedule: Q01DX009 (ip), vehicle: saline) is 101 % of control; the T/C under setting [16] was 97 % of control; the T/C under setting [19] was 98 % of control; the T/C under setting [17] is 100 % of control; the T/C (dose: 400.0 mg/kg/injection, schedule: Q01DX009 (ip), vehicle: saline) is 101 % of control; the T/C under setting [18] is 103 % of control.

In the case of `NC(=S)c1ccc(Cl)cc1`, the T/C reads like this: under setting [10], 95 % of control; under setting [7], 101 % of control; under setting [11], 110 % of control; under setting [8], 97 % of control; under setting [9], 97 % of control.

As for `O=C(Nc1ccccc1)c1ccc(C(F)(F)F)cc1O`, the T/C under setting [7] was 105 % of control and the T/C under setting [8] was 103 % of control.

With `Clc1nc2nsnc2nc1Cl`, the T/C reads like this: (dose: 25.0 mg/kg/injection, schedule: Q01DX009 (ip), vehicle: saline with Tween-80) 91 % of control; (dose: 50.0 mg/kg/injection, schedule: Q01DX009 (ip), vehicle: saline with Tween-80) 110 % of control; under setting [10], 96 % of control; under setting [11], 104 % of control; under setting [12], 94 % of control.
